These are literature values, as cited in patent publication US20080124400A1, “Microparticles With High Loadings Of A Bioactive Agent” (Angiotech International AG, priority 2004, published 2008).

The subject of data set [1] is collagen induced arthritis. The following applies: animal model.
Data set [2] concerns normal chondrocytes and non-proliferating synoviocytes.

With `CC(=O)O[C@H]1C(=O)[C@@]2(C)[C@H]([C@H](OC(=O)c3ccccc3)[C@]3(O)C[C@H](OC(=O)[C@H](O)[C@@H](NC(=O)c4ccccc4)c4ccccc4)C(C)=C1C3(C)C)[C@]1(OC(C)=O)CO[C@@H]1C[C@@H]2O` [Paclitaxel, paclitaxel], the collagen induced arthritis entry in data set [1] is given as “inhibits collagen induced arthritis”. Moreover, the “toxicity to non-proliferating cells” value in data set [2] is “non-toxic”. Besides, the AP-1 transcription activity entry with AP-1 is given as “inhibits AP-1 transcription activity”. Further, the “proliferation and apoptosis of synoviocytes” value with synoviocytes is “prevents the proliferation of and induces apoptosis in synoviocytes”. The “T-cell response to stimuli and T-cell function” value with T-cell is “decreases T-cell response to stimuli, and inhibits T-cell function”. In the data set on neutrophil, the neutrophil activation entry was “inhibits neutrophil activation”.
